Experimental data: the supplement of paper PMC10307832

Experiments:
Assay in all cases: relative viability (nuclei count vs DMSO), 5 days (fraction); higher = more cells survive
[1] = compound: COc1cc(Nc2c(C#N)cnc3cc(OCCCN4CCN(C)CC4)c(OC)cc23)c(Cl)cc1Cl [Bosutinib] + NC(=O)Nc1cc(-c2cccc(F)c2)sc1C(=O)N[C@H]1CCCNC1 [AZD7762] (partner 0.2 µM)
Outline: (§1)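 A single step with final 0.05% Triton X-100, 1% formaldehyde and 1 ug/ml Hoechst fixed the cells and stained nuclei 5 days after treatment. Lung cancer cell lines in 1536-well plates had been treated by pin tool the day after seeding with one drug alone or a fixed anchor-drug dose plus five library-drug doses (not always all listed) in √10 steps, and nuclei were counted on 4× images. Relative viability is the ratio of nuclei in treated wells to nuclei in vehicle wells, taken as the median of duplicate plates.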

[2] = compound: COc1cc(Nc2c(C#N)cnc3cc(OCCCN4CCN(C)CC4)c(OC)cc23)c(Cl)cc1Cl [Bosutinib] + CS(=O)(=O)N1CCN(Cc2cc3nc(-c4cccc5[nH]ncc45)nc(N4CCOCC4)c3s2)CC1 [Pictilisib] (partner 1 µM)
Outline: as §1

[3] = compound: COc1cc(Nc2c(C#N)cnc3cc(OCCCN4CCN(C)CC4)c(OC)cc23)c(Cl)cc1Cl [Bosutinib] + CC(=O)Nc1cccc(-n2c(=O)n(C3CC3)c(=O)c3c(Nc4ccc(I)cc4F)n(C)c(=O)c(C)c32)c1 [Trametinib] (partner 0.02 µM)
Outline: as §1

[4] = compound: COc1cc(Nc2c(C#N)cnc3cc(OCCCN4CCN(C)CC4)c(OC)cc23)c(Cl)cc1Cl [Bosutinib] + C[C@@H](Oc1cc(-c2cnn(C3CCNCC3)c2)cnc1N)c1c(Cl)ccc(F)c1Cl [Crizotinib] (partner 1 µM)
Outline: as §1

[5] = compound: COc1cc(Nc2c(C#N)cnc3cc(OCCCN4CCN(C)CC4)c(OC)cc23)c(Cl)cc1Cl [Bosutinib] + O=C(c1cc(Cc2n[nH]c(=O)c3ccccc23)ccc1F)N1CCN(C(=O)C2CC2)CC1 [Olaparib] (partner 8 µM)
Outline: as §1

Cell Line	relative viability ([1]; first compound 0.01 µM)	relative viability ([1]; first compound 0.03162 µM)	relative viability ([1]; first compound 0.1 µM)	relative viability ([1]; first compound 1 µM)	relative viability ([2]; first compound 0.01 µM)	relative viability ([2]; first compound 0.03162 µM)	relative viability ([2]; first compound 0.1 µM)	relative viability ([2]; first compound 1 µM)	relative viability ([3]; first compound 0.01 µM)	relative viability ([3]; first compound 0.03162 µM)	relative viability ([3]; first compound 0.1 µM)	relative viability ([3]; first compound 1 µM)	relative viability ([4]; first compound 0.01 µM)	relative viability ([4]; first compound 0.03162 µM)	relative viability ([4]; first compound 0.1 µM)	relative viability ([4]; first compound 1 µM)	relative viability ([5]; first compound 0.01 µM)	relative viability ([5]; first compound 0.03162 µM)	relative viability ([5]; first compound 0.1 µM)	relative viability ([5]; first compound 1 µM)
NCI-H1437	1.08	1.07	1.13	0.922	0.465	0.395	0.54	0.483	0.486	0.403	0.53	0.413	0.858	0.922	0.898	0.82	0.609	0.635	0.604	0.545
HOP-62	0.497	0.619	0.721	0.4	0.898	0.787	0.698	0.819	0.377	0.425	0.401	0.354	0.897	0.949	0.964	0.986		0.395	0.451	0.435
EPLC-272H	0.225	0.244	0.18	0.232	0.375	0.293	0.36	0.426	0.297	0.281	0.281	0.281	0.904	1.17	1.05	0.818	0.722	0.909	0.626	0.515
HCC-366	0.34	0.253	0.205	0.073	0.154	0.144	0.181	0.121	0.319	0.226	0.326	0.215	0.59	0.6	0.516	0.316	0.406	0.378	0.376	0.19
HCC-44	1.02	1.01	1.01	1.04	0.723	0.548	0.587	0.632	1.03	1.04	1.09	1.05	0.809	0.782	0.764	0.755	0.981	0.923	0.978	1.04
NCI-H23	0.356	0.205	0.202	0.164	0.523	0.503	0.531	0.481	0.343	0.344	0.36	0.277	0.636	0.464	0.512	0.458	0.326	0.328	0.348	0.278
NCI-H727	0.549	0.59	0.641	0.451	0.447	0.435	0.297	0.282	0.377	0.359	0.378	0.305	0.725	0.885	0.701	0.378	0.6	0.87	0.69	0.563
